Here are results for 33 compounds from patent US20150218173A1, “SUBSTITUTED INDAZOL-PYRROLOPYRIMIDINES USEFUL IN THE TREATMENT OF HYPERFOLIFERATIVE DISORDERS” (BAYER PHARMA AKTIENGESELLSCHAFT, priority 2012, published 2015).

SMILES strings stand for the structures.

For the assay, the target named is T1, human full-length MKNK1 (Homo sapiens, UniProt Q9BUB5, T385D).
T1 construct: GST (N); purchased Carna Biosciences 02-145; host or cells: insect cells (baculovirus expression system)
T1 sequence (Q9BUB5 1-424 isoform Q9BUB5-2 T344D): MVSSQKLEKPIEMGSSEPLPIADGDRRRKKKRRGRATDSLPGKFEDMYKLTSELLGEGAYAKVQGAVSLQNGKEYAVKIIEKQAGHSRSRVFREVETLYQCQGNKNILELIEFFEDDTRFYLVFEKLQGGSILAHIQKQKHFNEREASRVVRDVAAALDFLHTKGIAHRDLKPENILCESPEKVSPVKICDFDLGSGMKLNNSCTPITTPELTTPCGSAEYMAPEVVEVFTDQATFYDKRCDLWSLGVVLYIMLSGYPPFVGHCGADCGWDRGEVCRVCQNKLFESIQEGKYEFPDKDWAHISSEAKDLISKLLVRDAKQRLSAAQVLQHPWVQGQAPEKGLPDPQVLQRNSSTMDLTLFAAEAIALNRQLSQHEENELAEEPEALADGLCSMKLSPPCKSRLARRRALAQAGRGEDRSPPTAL
As to the kind of experiment: MKNK1 kinase high ATP assay (TR-FRET). It counts as biochemical. To be noted: high ATP (2 mM final), 15 min preincubation with enzyme. How it is done: MKNK1-inhibitory activity at high ATP of compounds of the present invention after their preincubation with MKNK1 was quantified employing the TR-FRET-based MKNK1 high ATP assay as described in the following paragraphs.
A recombinant fusion protein of Glutathione-S-Transferase (GST, N-terminally) and human full-length MKNK1 (amino acids 1-424 and T344D of accession number BAA 19885.1), expressed in insect cells using baculovirus expression system and purified via glutathione sepharose affinity chromatography, was purchased from Carna Biosciences (product no 02-145) and used as enzyme. As substrate for the kinase reaction the biotinylated peptide biotin-Ahx-IKKRKLTRRKSLKG (C-terminus in amide form) was used, which can be purchased e.g. from the company Biosyntan (Berlin-Buch, Germany).
For the assay 50 nL of a 100 fold concentrated solution of the test compound in DMSO was pipetted into a black low volume 384 well microtiter plate (Greiner Bio-One, Frickenhausen, Germany), 2 μL of a solution of MKNK1 in aqueous assay buffer [50 mM HEPES pH 7.5, 5 mM MgCl2, 1.0 mM dithiothreitol, 0.005% (v/v) Nonidet-P40 (Sigma)] was added and the mixture was incubated for 15 min at 22° C. to allow pre-binding of the test compounds to the enzyme before the start of the kinase reaction. Then the kinase reaction was started by the addition of 3 μL of a solution of adenosine-tri-phosphate (ATP, 3.3 mM=>final conc. in the 5 μL assay volume is 2 mM) and substrate (0.1 μM=>final conc. in the 5 μL assay volume is 0.06 μM) in assay buffer and the resulting mixture was incubated for a reaction time of 30 min at 22° C. The concentration of MKNK1 was adjusted depending of the activity of the enzyme lot and was chosen appropriate to have the assay in the linear range, typical concentrations were in the range of 0.003 μg/mL. The reaction was stopped by the addition of 5 μL of a solution of TR-FRET detection reagents (5 nM streptavidine-XL665 [Cisbio Bioassays, Codolet, France] and 1 nM anti-ribosomal protein S6 (pSer236)-antibody from Invitrogen [#44921G] and 1 nM LANCE EU-W1024 labeled ProteinG [Perkin-Elmer, product no. AD0071]) in an aqueous EDTA-solution (100 mM EDTA, 0.1% (w/v) bovine serum albumin in 50 mM HEPES pH 7.5).
The resulting mixture was incubated for 1 h at 22° C. to allow the formation of complex between the phosphorylated biotinylated peptide and the detection reagents. Subsequently the amount of phosphorylated substrate was evaluated by measurement of the resonance energy transfer from the Eu-chelate to the streptavidine-XL. Therefore, the fluorescence emissions at 620 nm and 665 nm after excitation at 350 nm were measured in a TR-FRET reader, e.g. a Rubystar (BMG Labtechnologies, Offenburg, Germany) or a Viewlux (Perkin-Elmer). The ratio of the emissions at 665 nm and at […] was taken as the measure for the amount of phosphorylated substrate. The data were normalised (enzyme reaction without inhibitor=0% inhibition, all other assay components but no enzyme=100% inhibition).
For the compound `CCc1[nH]c2ncnc(Nc3ccc4[nH]ncc4c3)c2c1C` [Example 1, 6-Ethyl-N-(1H-indazol-5-yl)-5-methyl-7H-pyrrolo[2,3-d]pyrimidin-4-amine], the midpoint of inhibition, the IC50, lay at 58 nM. With `Brc1c[nH]c2ncnc(Nc3ccc4[nH]ncc4c3)c12` [Example 2, 5-Bromo-N-(1H-indazol-5-yl)-7H-pyrrolo[2,3-d]pyrimidin-4-amine] the figure was 10 nM. The same measure for `CCOC(=O)c1cc2c(Nc3ccc4[nH]ncc4c3)ncnc2[nH]1` [Example 4, Ethyl 4-(1H-indazol-5-ylamino)-7H-pyrrolo[2,3-d]pyrimidine-6-carboxylate]: 25 nM; for `CS(=O)(=O)c1cc2c(Nc3ccc4[nH]ncc4c3)ncnc2[nH]1` [Example 5, N-(1H-Indazol-5-yl)-6-(methylsulfonyl)-7H-pyrrolo[2,3-d]pyrimidin-4-amine]: 11 nM; for `Cc1cc2c(Nc3ccc4[nH]ncc4c3)ncnc2[nH]1` [Example 7, N-(1H-Indazol-5-yl)-6-methyl-7H-pyrrolo[2,3-d]pyrimidin-4-amine]: 31 nM. For `C=C(C)c1cc2c(Nc3ccc4[nH]ncc4c3)ncnc2[nH]1` [Example 8, N-(1H-indazol-5-yl)-6-(prop-1-en-2-yl)-7H-pyrrolo[2,3-d]pyrimidin-4-amine], the half-inhibitory concentration (IC50) (commonly the point on the concentration scale where inhibition reaches its midpoint) stood at 4 nM. With `C=Cc1cc2c(Nc3ccc4[nH]ncc4c3)ncnc2[nH]1` [Example 9, 6-Ethenyl-N-(1H-indazol-5-yl)-7H-pyrrolo[2,3-d]pyrimidin-4-amine], the IC50 was 7 nM. For `C(=C\c1cc2c(Nc3ccc4[nH]ncc4c3)ncnc2[nH]1)/c1ccccc1` [Example 10, N-(1H-Indazol-5-yl)-6-[(E)-2-phenylethenyl]-7H-pyrrolo[2,3-d]pyrimidin-4-amine], the half-maximal inhibitory concentration (IC50) worked out at 6 nM.

The compound `Fc1ccc(-c2c[nH]c3ncnc(Nc4ccc5[nH]ncc5c4)c23)cc1` [Example 12, 5-(4-Fluorophenyl)-N-(1H-indazol-5-yl)-7H-pyrrolo[2,3-d]pyrimidin-4-amine] registered a 50% inhibitory concentration (IC50) of 16 nM. Consider `c1cncc(-c2c[nH]c3ncnc(Nc4ccc5[nH]ncc5c4)c23)c1` [Example 13, N-(1H-Indazol-5-yl)-5-(pyridin-3-yl)-7H-pyrrolo[2,3-d]pyrimidin-4-amine], for which the half-maximal inhibitory concentration (IC50) was 9 nM. With `c1cc(-c2c[nH]c3ncnc(Nc4ccc5[nH]ncc5c4)c23)ccn1` [Example 14, N-(1H-Indazol-5-yl)-5-(pyridin-4-yl)-7H-pyrrolo[2,3-d]pyrimidin-4-amine] the figure was 6 nM. The same measure for `c1ccc(-c2c[nH]c3ncnc(Nc4ccc5[nH]ncc5c4)c23)cc1` [Example 15, N-(1H-Indazol-5-yl)-5-phenyl-7H-pyrrolo[2,3-d]pyrimidin-4-amine]: 16 nM; for `C1=C(c2cc3c(Nc4ccc5[nH]ncc5c4)ncnc3[nH]2)CCOC1` [Example 16, 6-(3,6-Dihydro-2H-pyran-4-yl)-N-(1H-indazol-5-yl)-7H-pyrrolo[2,3-d]pyrimidin-4-amine]: 2 nM. Take `C1=C(c2c[nH]c3ncnc(Nc4ccc5[nH]ncc5c4)c23)CCOC1` [Example 17, 5-(3,6-Dihydro-2H-pyran-4-yl)-N-(1H-indazol-5-yl)-7H-pyrrolo[2,3-d]pyrimidin-4-amine]: the IC50 was found to be 12 nM.

With `Cc1c[nH]c2ncnc(Nc3ccc4[nH]ncc4c3)c12` [Example 18, N-(1H-Indazol-5-yl)-5-methyl-7H-pyrrolo[2,3-d]pyrimidin-4-amine], the IC50 was determined as 22 nM.

With `CC(C)c1cc2c(Nc3ccc4[nH]ncc4c3)ncnc2[nH]1` [Example 19, N-(1H-Indazol-5-yl)-6-(propan-2-yl)-7H-pyrrolo[2,3-d]pyrimidin-4-amine], the half-maximal inhibitory concentration (IC50) was 39 nM. The compound `O=C(NCCO)c1cc2c(Nc3ccc4[nH]ncc4c3)ncnc2[nH]1` [Example 20, N-(2-Hydroxyethyl)-4-(1H-indazol-5-ylamino)-7H-pyrrolo[2,3-d]pyrimidine-6-carboxamide] came in with an IC50 of 9 nM. Take `O=C(c1cc2c(Nc3ccc4[nH]ncc4c3)ncnc2[nH]1)N1CCCC1` [Example 21, [4-(1H-Indazol-5-ylamino)-7H-pyrrolo[2,3-d]pyrimidin-6-yl](pyrrolidin-1-yl)methanone]: the IC50 turned out to be 8 nM. For the compound `CCCCNC(=O)c1cc2c(Nc3ccc4[nH]ncc4c3)ncnc2[nH]1` [Example 22, N-Butyl-4-(1H-indazol-5-ylamino)-7H-pyrrolo[2,3-d]pyrimidine-6-carboxamide], the half-maximal inhibitory concentration (IC50) came to 5 nM. With `CN1CCN(C(=O)c2cc3c(Nc4ccc5[nH]ncc5c4)ncnc3[nH]2)CC1` [Example 23, [4-(1H-Indazol-5-ylamino)-7H-pyrrolo[2,3-d]pyrimidin-6-yl](4-methylpiperazin-1-yl)methanone] the figure was 9 nM. `c1nc(Nc2ccc3[nH]ncc3c2)c2cc(C3CCOCC3)[nH]c2n1` [Example 24, N-(1H-Indazol-5-yl)-6-(tetrahydro-2H-pyran-4-yl)-7H-pyrrolo[2,3-d]pyrimidin-4-amine] returned an IC50 of 29 nM. Against the preceding compound, the IC50 is about 3.2-fold higher. As to `O=C(NC1CCOCC1)c1cc2c(Nc3ccc4[nH]ncc4c3)ncnc2[nH]1` [Example 25, 4-(1H-Indazol-5-ylamino)-N-(tetrahydro-2H-pyran-4-yl)-7H-pyrrolo[2,3-d]pyrimidine-6-carboxamide], the half-inhibitory concentration (IC50) was 8 nM.

In the case of `c1ccc(CCc2cc3c(Nc4ccc5[nH]ncc5c4)ncnc3[nH]2)cc1` [Example 26, N-(1H-Indazol-5-yl)-6-(2-phenylethyl)-7H-pyrrolo[2,3-d]pyrimidin-4-amine], the IC50 amounted to 80 nM.

`CN(C)CCCNC(=O)c1cc2c(Nc3ccc4[nH]ncc4c3)ncnc2[nH]1` [Example 27, N-[3-(Dimethylamino)propyl]-4-(1H-indazol-5-ylamino)-7H-pyrrolo[2,3-d]pyrimidine-6-carboxamide]: half-maximal inhibition (IC50) required 5 nM. Consider `Clc1cc2c(Nc3ccc4[nH]ncc4c3)ncnc2[nH]1` [Example 28, 6-Chloro-N-(1H-indazol-5-yl)-7H-pyrrolo[2,3-d]pyrimidin-4-amine], for which half-maximal inhibition (IC50) was put at 32 nM. In the case of `CCOC(=O)c1[nH]c2ncnc(Nc3ccc4[nH]ncc4c3)c2c1C` [Example 29, Ethyl 4-(1H-indazol-5-ylamino)-5-methyl-7H-pyrrolo[2,3-d]pyrimidine-6-carboxylate], the 50% inhibitory concentration (IC50) is 13 nM. With `CCOC(=O)c1[nH]c2ncnc(Nc3ccc4[nH]ncc4c3)c2c1Br` [Example 30, Ethyl 5-bromo-4-(1H-indazol-5-ylamino)-7H-pyrrolo[2,3-d]pyrimidine-6-carboxylate] the figure was 3 nM; with `O=C(O)c1[nH]c2ncnc(Nc3ccc4[nH]ncc4c3)c2c1Br` [Example 31, 5-Bromo-4-(1H-indazol-5-ylamino)-7H-pyrrolo[2,3-d]pyrimidine-6-carboxylic acid], 5 nM; with `Cc1c(C(=O)O)[nH]c2ncnc(Nc3ccc4[nH]ncc4c3)c12` [Example 32, 4-(1H-Indazol-5-ylamino)-5-methyl-7H-pyrrolo[2,3-d]pyrimidine-6-carboxylic acid], 18 nM. As for `CCCc1[nH]c2ncnc(Nc3ccc4[nH]ncc4c3)c2c1CC` [Example 34, 5-Ethyl-N-(1H-indazol-5-yl)-6-propyl-7H-pyrrolo[2,3-d]pyrimidin-4-amine], it took 13 nM to reach half-maximal inhibition (IC50). In turn, `FC(F)(F)c1c[nH]c2ncnc(Nc3ccc4[nH]ncc4c3)c12` [Example 35, N-(1H-Indazol-5-yl)-5-(trifluoromethyl)-7H-pyrrolo[2,3-d]pyrimidin-4-amine] yielded an IC50 of 37 nM.

`O=S(=O)(c1ccccc1)c1cc2c(Nc3ccc4[nH]ncc4c3)ncnc2[nH]1` [Example 36, N-(1H-Indazol-5-yl)-6-(phenylsulfonyl)-7H-pyrrolo[2,3-d]pyrimidin-4-amine] showed an IC50 of 1 nM. This IC50 lies about 37-fold lower than the previous one. The same measure for `Cc1ccc(S(=O)(=O)c2cc3c(Nc4ccc5[nH]ncc5c4)ncnc3[nH]2)cc1` [Example 37, N-(1H-Indazol-5-yl)-6-[(4-methylphenyl)sulfonyl]-7H-pyrrolo[2,3-d]pyrimidin-4-amine]: 2 nM.
